Patent US8633168B2, “Inhibitors of S-adenosyl-L-methionine decarboxylase” (Genzyme Corporation, priority 2007, dated 2014)
Where two headings read alike, the source gives them in different places.

Tests used:
[1] = test system: Trypanosoma brucei rhodesiense strain STIB 900; test: Drug sensitivity assay against T. b. rhodesiense (Alamar blue); format: cell-based
Source text: Trypanosoma brucei rhodesiense strain STIB 900, a clone of a population isolated in 1982 from a patient in Tanzania which is known to be susceptible to all currently used drugs was used in these assays. The bloodstream form trypomastigotes of this strain were maintained in supplemented Modified Eagle's Medium according to standard protocols (Hirumi H, Hirumi K, 1989. “Continuous cultivation of Trypanosoma brucei blood stream forms in a medium containing a low concentration of serum protein without feeder cell layers”. J Parasitol 75: 985-9).
(§1) Drug sensitivity assays were performed in sterile 96-well microtiter plates, with or without serial drug dilutions. The compounds were tested at 7 concentrations (drug concentration ranging from 90 μg/ml to 0.123 μg/ml in 3-fold dilutions). The highest concentration for the test compounds was 90 μg/ml. Each drug is tested in duplicate. After 72 hours of incubation the plates were inspected microscopically to assure growth of the controls to determine the minimum inhibitory concentration (MIC), i.e., the lowest drug concentration at which no trypanosomes with normal morphology and motility can be seen compared to control wells. Cell viability is measured by Alamar blue staining and IC50 values were calculated.
The bloodstream form trypomastigotes of the three strains are maintained according to standard protocols established at STI.
as §1, with “are” for “were”, “The” for “The compounds were tested at 7 concentrations (drug concentration ranging from 90 μg/ml to 0.123 μg/ml in 3-fold dilutions). The”, “is” for “was”
The preliminary screen used T. b. rhodesiense. The compounds were tested at 7 concentrations (drug concentration ranging from 90 μg/ml to 0.123 μg/ml in 3-fold dilutions).

CYP2D6 = CYP2D6 (Homo sapiens, UniProt P10635); test: Cytochrome P450 inhibition, CYP2D6
Chain of CYP2D6 (P10635 whole entry): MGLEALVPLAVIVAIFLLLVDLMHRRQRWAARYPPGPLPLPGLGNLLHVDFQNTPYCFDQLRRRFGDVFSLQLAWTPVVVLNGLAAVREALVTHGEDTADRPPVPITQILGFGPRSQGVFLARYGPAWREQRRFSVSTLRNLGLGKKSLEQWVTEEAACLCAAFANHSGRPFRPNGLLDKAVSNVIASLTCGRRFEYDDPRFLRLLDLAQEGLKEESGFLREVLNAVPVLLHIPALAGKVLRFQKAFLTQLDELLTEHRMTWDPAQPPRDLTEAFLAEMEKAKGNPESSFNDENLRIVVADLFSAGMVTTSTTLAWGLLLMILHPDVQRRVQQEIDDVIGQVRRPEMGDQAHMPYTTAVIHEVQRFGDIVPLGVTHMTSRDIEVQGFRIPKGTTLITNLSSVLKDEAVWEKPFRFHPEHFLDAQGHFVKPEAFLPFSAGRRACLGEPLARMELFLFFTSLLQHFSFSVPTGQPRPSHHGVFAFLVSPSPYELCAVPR
Source text: This cytochrome P450 high throughput IC50 inhibition assay is utilized for screening potential inhibitors of the 5 major human CYP isozyme catalytic activities (CYP3A4, 2D6, 2C9, 2C19, and 1A2).

T. b. brucei - STIB795 = test: In vivo efficacy, acute T. b. brucei STIB795 infection model in mice; design: species or system mouse (NMRI); details: for average (survival days) / cured/infected: 4 × 50 mg/kg i.p., NMRI mice; for average (survival days): control 6; for activity in the model (lengthening the survival days) / mice cured: STIB795 model, footnote of Table 4; for protection from lethal effects of infection: controls died on average by Day 6
Protocol: Compounds are tested for efficacy in the acute model for T. b. brucei infection (Bitonti A J, Byers T L, Bush T L, Casara P J, Bacchi C J, Clarkson A B, Jr., McCann P P, Sjoerdsma A, 1990. Cure of Trypanosoma brucei brucei and Trypanosoma brucei rhodesiense infections in mice with an irreversible inhibitor of S-adenosylmethionine decarboxylase. Antimicrob Agents Chemother 34: 1485-1490). Briefly, mice are infected with 1×10^4 strain STIB 795 trypanosomes on Day 0, then treated once/day (50 mg/kg i.p) with test compound for 4 days starting on Day 3. Animals are assessed by microscopic examination of blood smears twice/week through Day 60. Untreated animals generally die by Days 7-9.

[2] = Screening Data, read-out: IC50 T. b. rhod.
[3] = Table 1, 72 hours incubation, Alamar blue, read-out: IC50 against T. b. rhodesiense (ug/mL) by STI
[4] = Table 2, read-out: IC50 against T. b. rhodesiense (ug/mL) by STI
[5] = Table 3, read-out: IC50 against T. brucei rhodesiense
[6] = read-out: CYP IC50 2D6, Example 12 chart

| Structure (SMILES) | IC50 [1, 2] [µM] | IC50 [1, 3] [µg/mL] | IC50 [1, 4] [µg/mL] | IC50 [1, 5] [µg/mL] | IC50 (CYP2D6; human, probe fluorometric substrates (not named)) [µM] | IC50 ([1]; read-out: IC50 against T. b. rhodesiense) [µg/mL] | survival of treated animals (T. b. brucei - STIB795) | average (survival days) (T. b. brucei - STIB795) [days] | cured/infected (T. b. brucei - STIB795; 20 Days) [Days 0/4] | cured/infected (T. b. brucei - STIB795; >30 Days) | parasites on Day 20 (T. b. brucei - STIB795; Day 20) | parasites on Day 30 (T. b. brucei - STIB795; Day 30) | activity in the model (lengthening the survival days) (T. b. brucei - STIB795) | mice cured (T. b. brucei - STIB795; listed as Compound No. 4) | protection from lethal effects of infection (T. b. brucei - STIB795) | IC50 (CYP2D6) [µM] | IC50 (CYP2D6; [6]) [µM] | cured/infected (T. b. brucei - STIB795; 26 Days) [Days 2/4] | mice cured (T. b. brucei - STIB795) | logD (physchem) |
| --- | --- | --- | --- | --- | --- | --- | --- | --- | --- | --- | --- | --- | --- | --- | --- | --- | --- | --- | --- | --- |
| CN(C/C=C\CN)C[C@H]1O[C@@H](n2cnc3c(N)ncnc32)[C@H](F)[C@@H]1O (stereo in doubt) [Compound 1] | 1.39 | 0.489 | 0.489 | 0.489 | > 5 |  |  |  |  |  |  |  |  |  |  |  |  |  |  |  |
| Cc1nc2c(N)ncnc2n1[C@@H]1O[C@H](CN(C)C/C=C\CN)[C@@H](O)[C@H]1O (stereo in doubt) [Compound 4] | 0.001 | 0.0004 | 0.0004 | 0.0004 |  | 0.0004 | all survived through Day 30 | >30 | 20 | 1/4 | appeared free of parasites | parasites were again evident | active in the model in terms of lengthening the survival days | ¼ | protected mice from lethal effects of infection | > 5 | > 5 |  |  |  |
| CN(C/C=C\CN)C[C@H]1O[C@@H](n2cnc3c(N)ncnc32)[C@@H](F)[C@@H]1O [Compound 2] | 2.59 | 0.908 | 0.908 |  |  |  |  |  |  |  |  |  |  |  |  | > 5 | > 5 |  |  |  |
| CN(C/C=C\CN)C[C@H]1O[C@@H](n2cnc3c(N)nc(Cl)nc32)[C@H](O)[C@@H]1O [Compound 3] | 1.76 | 0.676 | 0.676 |  |  |  |  |  |  |  |  |  |  |  |  | > 5 | > 5 |  |  |  |
| CN(C/C=C\CN)CC1OC(n2cnc3c(N)ncnc32)C(O)C1O (stereo not drawn) [MDL-73811, reference compound] | 0.011 | 0.004 | 0.004 | 0.004 |  |  | all survived through Day 30 | >30 |  | 1/4 |  |  | active in the model in terms of lengthening the survival days |  | protected mice from lethal effects of infection | > 5 | > 5 | 26 | ¼ | -1.8 |
